Columns and labels:
[1] = test system: rabbit serum obtained by immunizing a rabbit with the SARS-CoV strain Frankfurt 1; assay type: binding; set-up: Binding of a rabbit serum to linear peptides / Binding of a rabbit serum to looped peptides / Rabbit serum linear peptides / Rabbit serum looped peptides / Binding of a rabbit serum to linear peptides of protein N of SARS-CoV Urbani (Rabbit serum linear peptides) / Binding of a rabbit serum to looped/cyclic peptides of protein N of SARS-CoV Urbani (Rabbit serum looped peptides): unit not given here
[2] = test system: control sera (pooled serum of ten healthy LUMC hospital workers; commercial negative donor pooled serum from the Dutch bloodbank); assay type: binding, human; set-up: Binding of Control serum LUMC to linear peptides / Binding of Control serum Blood-bank to linear peptides / Binding of Control serum LUMC to looped peptides / Binding of Control Serum Blood-Bank to Looped peptides / Binding of Control serum LUMC to linear peptides of the protein M of SARS-CoV Urbani / Binding of Control serum Blood-bank to linear peptides of the protein M of SARS-CoV Urbani / Binding of Control serum LUMC to looped peptides of the protein M of SARS-CoV Urbani / Binding of Control Serum Blood-Bank to Looped peptides of the protein M of SARS-CoV Urbani: unit not given here
[3] = test system: antibodies in sera from SARS patients (sera 1a, 1b, 2, 6, 37, 62, London, SARS-yellow, SARS-green); assay type: binding, human; set-up: Binding of serum 6 to linear peptides of protein X1 of SARS-CoV Urbani / Binding of serum 37 to linear peptides of protein X1 of SARS-CoV Urbani / Binding of serum 6 to looped/cyclic peptide (PEPSCAN-ELISA) / Binding of serum 37 to looped/cyclic peptide (PEPSCAN-ELISA) / Binding of serum 37 to looped/cyclic peptides of protein X1 of SARS-CoV Urbani / Binding of serum 6 to linear peptides of protein X2 / Binding of serum 37 to linear peptides of protein X2 / Binding of serum 37 to looped/cyclic peptides of protein X2 of SARS-CoV Urbani / Binding of serum 6 to linear peptides of protein M of SARS-CoV Urbani / Binding of serum 37 to linear peptides of protein M of SARS-CoV Urbani / Binding of serum 6 to looped/cyclic peptides of protein M of SARS-CoV Urbani / Binding of serum 37 to looped/cyclic peptides of protein M of SARS-CoV Urbani / Binding of serum 6 to linear peptides of protein X3 of SARS-CoV Urbani / Binding of serum 37 to linear peptides of protein X3 of SARS-CoV Urbani / Binding of serum 37 to looped/cyclic peptides of protein X3 of SARS-CoV Urbani / Binding of serum 6 to linear peptides of protein X4 of SARS-CoV Urbani / Binding of serum 37 to linear peptides of protein X4 of SARS-CoV Urbani / Binding of serum 37 to looped/cyclic peptides of protein X4 of SARS-CoV Urbani / Binding of serum 6 to linear peptides of protein X5 of SARS-CoV Urbani / Binding of serum 37 to linear peptides of protein X5 of SARS-CoV Urbani / Binding of serum 37 to looped/cyclic peptides of protein X5 of SARS-CoV Urbani / Binding of serum 6 to linear peptides of protein N of SARS-CoV Urbani / Binding of serum 37 to linear peptides of protein N of SARS-CoV Urbani / Binding of serum 6 to linear peptide (PEPSCAN-ELISA) / Binding of serum 1a to looped/cyclic peptides of protein N of SARS-CoV Urbani / Binding of serum 1b to looped/cyclic peptides of protein N of SARS-CoV Urbani / Binding of serum 2 to looped/cyclic peptides of protein N of SARS-CoV Urbani / Binding of serum 6 to looped/cyclic peptides of protein N of SARS-CoV Urbani / Binding of serum 37 to looped/cyclic peptides of protein N of SARS-CoV Urbani / Binding of serum 62 to looped/cyclic peptides of protein N of SARS-CoV Urbani / Binding of serum London to looped/cyclic peptides of protein N of SARS-CoV Urbani / Binding of serum SARS-green to looped/cyclic peptides of protein N of SARS-CoV Urbani: unit not given here

ENATFFIFNKLVKDP
0.1: Binding of a rabbit serum to linear peptides [1]
0.0: Binding of serum SARS-green to linear peptides of protein X1 of SARS-CoV Urbani [3]
0.5: Binding of a rabbit serum to looped peptides [1] | Binding of Control serum Blood-bank to linear peptides [2] | Binding of serum 2 to linear peptides of protein X1 of SARS-CoV Urbani [3] | Binding of serum 2 to looped/cyclic peptides of protein X1 of SARS-CoV Urbani [3] | Binding of serum 37 to linear peptides of protein X1 of SARS-CoV Urbani [3] | Binding of serum 62 to looped/cyclic peptides of protein X1 of SARS-CoV Urbani [3]
0.6: Binding of serum 1a to linear peptides of protein X1 of SARS-CoV Urbani [3]
0.7: Binding of Control Serum Blood-Bank to Looped peptides [2]
0.2: Binding of serum London to linear peptides of protein X1 of SARS-CoV Urbani [3] | Binding of serum London to looped/cyclic peptides of protein X1 of SARS-CoV Urbani [3] | Binding of serum SARS-green to looped/cyclic peptides of protein X1 of SARS-CoV Urbani [3] | Binding of serum SARS-yellow to linear peptides of protein X1 of SARS-CoV Urbani [3] | Binding of serum SARS-yellow to looped/cyclic peptides of protein X1 of SARS-CoV Urbani [3]
0.3: Binding of serum 1b to looped/cyclic peptides of protein X1 of SARS-CoV Urbani [3]
0.4: Binding of Control serum LUMC to linear peptides [2] | Binding of Control serum LUMC to looped peptides [2] | Binding of serum 1a to looped/cyclic peptides of protein X1 of SARS-CoV Urbani [3] | Binding of serum 1b to linear peptides of protein X1 of SARS-CoV Urbani [3] | Binding of serum 6 to linear peptides of protein X1 of SARS-CoV Urbani [3] | Binding of serum 6 to looped/cyclic peptides of protein X1 of SARS-CoV Urbani [3] | Binding of serum 37 to looped/cyclic peptides of protein X1 of SARS-CoV Urbani [3] | Binding of serum 62 to linear peptides of protein X1 of SARS-CoV Urbani [3]

EQWNLVIGFLFLAWI
0.2: Rabbit serum linear peptides [1] | Binding of serum London to looped/cyclic peptides of protein M of SARS-CoV Urbani [3]
0.5: Binding of Control serum Blood-bank to linear peptides of the protein M of SARS-CoV Urbani [2] | Binding of serum 1b to linear peptides of protein M of SARS-CoV Urbani [3] | Binding of serum 2 to linear peptides of protein M of SARS-CoV Urbani [3] | Binding of serum 6 to linear peptides of protein M of SARS-CoV Urbani [3] | Binding of serum 62 to linear peptides of protein M of SARS-CoV Urbani [3]
0.7: Binding of Control serum LUMC to looped peptides of the protein M of SARS-CoV Urbani [2] | Binding of serum 1a to linear peptides of protein M of SARS-CoV Urbani [3] | Binding of serum 1a to looped/cyclic peptides of protein M of SARS-CoV Urbani [3] | Binding of serum 37 to looped/cyclic peptides of protein M of SARS-CoV Urbani [3] | Binding of serum 62 to looped/cyclic peptides of protein M of SARS-CoV Urbani [3]
0.3: Binding of serum SARS-yellow to linear peptides of protein M of SARS-CoV Urbani [3]
0.6: Binding of Control Serum Blood-Bank to Looped peptides of the protein M of SARS-CoV Urbani [2] | Binding of serum 1b to looped/cyclic peptides of protein M of SARS-CoV Urbani [3] | Binding of serum 2 to looped/cyclic peptides of protein M of SARS-CoV Urbani [3] | Binding of serum SARS-yellow to looped/cyclic peptides of protein M of SARS-CoV Urbani [3]
0.4: Rabbit serum looped peptides [1] | Binding of Control serum LUMC to linear peptides of the protein M of SARS-CoV Urbani [2] | Binding of serum 6 to looped/cyclic peptides of protein M of SARS-CoV Urbani [3] | Binding of serum 37 to linear peptides of protein M of SARS-CoV Urbani [3] | Binding of serum London to linear peptides of protein M of SARS-CoV Urbani [3] | Binding of serum SARS-green to linear peptides of protein M of SARS-CoV Urbani [3] | Binding of serum SARS-green to looped/cyclic peptides of protein M of SARS-CoV Urbani [3]

Reference: US20070128217A1 (priority 2003, published 2007)
